Source: US4356185A, “Thiazoles” (John Wyeth & Brother Limited, priority 1980, dated 1982)
Values joined by “and” are separate entries in the source; they are usually repeats but may differ in a detail not shown here. Identical values can stand only once.

System: ear edema (croton oil irritant mixture)
Test: anti-inflammatory activity against croton oil-induced ear edema (based on Tonelli et al), topical
Type: in vivo, Sprague-Dawley female rats
Conditions: right ear, in irritant mixture, 6 hours
Experimental: Compounds of formula I were tested for anti-inflammatory activity by the following procedure based on Tonelli et al, Endocrinology 77, 625 (1965):
Sprague-Dawley female rats, weighing 60 to 70 grams, are used in groups of 10. Ear edema is induced by inuncting both sides of the ear with an irritant mixture. This mixture containing 1% croton oil, 20% pyridine, 5% water and 74% diethyl ether, with or without test compound, is applied only once and only to the right ear. Six hours later the animals are sacrificed; a 9 mm diameter portion of both ears is punched out with a cork borer and weighed. The anti-inflammatory activity of the test agent is assessed by expressing the percent of the difference in average weight increase between the ears of the control groups and of the treated group. [formula]
Results found for representative compounds of formula I are tabulated below, together with results found in 3 tests for the preferred compound reported by Brown et al in J. Med. Chem.(loc-cit)namely 4-(p-chlorophenyl)-2-phenylthiazole-5-acetic acid (B): […]

Row | SMILES | % Inhibition (dose 2.5 mg) | % Inhibition (dose 5 mg) | % Inhibition (dose 50 μg) [%] | % Inhibition (dose 500 μg) [%]
1 | O=C(O)Cc1sc(-c2ccccc2)nc1-c1ccc(Cl)cc1 [4-(p-chlorophenyl)-2-phenylthiazole-5-acetic acid, reference compound] | 93% and 79% and 89% | 92% and 93% | – | –
2 | CCCCC(=O)Oc1ccc(-c2nc(-c3ccc(Cl)cc3)c(CC(=O)O)s2)cc1 [R = COC4 H9, 4-(4-Chlorophenyl)-2-(4-Valeryloxyphenyl)thiazole-5-acetic acid] | 71% | 87% | 41 | 54
3 | CC(=O)Oc1ccc(-c2nc(-c3ccc(Cl)cc3)c(CC(=O)O)s2)cc1 [R = COCH3, 2-(4-Acetoxyphenyl)-4-(4-chlorophenyl)thiazole-5-acetic acid] | 85% | 100% | -14 | 41
